# Assay results from patent US7510836B2, “Alpha arteether resistance domain” (priority 2003, dated 2009).
# Assays:
# Type in all cases: cell-based, Escherichia coli
# E. coli DH5 α (gyrA−) = assay: Disc diffusion, zone of inhibition; details: 250 μg/disc, Luria agar
# Experimental: (§1) To ascertain the involvement of gyrA mutation, another E.coli strain NK 5819 which is also GyrA″ and nalidixic acid resistant was tested for arteether sensitivity. As expected, strain NK5819 was also sensitive only to a-isomer of arteether. […] The assays for arteether sensitivity was performed by the standard single disk diffusion method (Bauer et al, 1966). As a next step, we isolated gyrA mutants of E.coli strain CA 8000, which is otherwise Gyr+ and nalidixic acid sensitive. The gyrA mutants of CA8000 were isolated as nalidixic acid resistant colonies (20 ug/ml), after mutagenic treatment with NTG ([…]). The isolated CA8000 gyrA mutants were also sensitive only to a isomer of arteether. […] To define precisely the involvement of gyr genes only in the a-arteether sensitivity, we utilised two recombinant clones (pMK 90 and pMK47 containing functional gyr A and gyrB genes respectively) in trans-complementation assays. For this purpose, we mobilized the plasmid clones into the E.coli gyr mutant strains. The resulting transformants were now nalidixic acid sensitive and a-arteether resistant. This constituted the direct evidence supporting our observation that DNA gyrase enzyme alone is involved in conferring a-arteether sensitivity to E.coli strain. […] DNA gyrase enzyme is essential for the bacterial growth. This enzyme transiently breaks the DNA strands and introduces negative superhelical turns in an ATP-dependent process. The E.coli DNA gyrase enzyme is a tetramer with two subunits A and B. These two subunits are nalidixic acid and coumermycin sensitive respectively (U.S. Pat. No. 6,127,405 and a co-pending patent).
# (§2) The strains of E coli mutants were grown on Luria agar medium and beta-arteether (250 μg/disc) was applied on disc. The clear zone around the disc killing the bacteria is called Zone of Inhibition (ZOI). This is the measure of sensitivity of the strain towards the compound […].
# E. coli ET8000 (gyrA−) = assay: Disc diffusion, zone of inhibition; details: 250 μg/disc, Luria agar
# Experimental: as §1, §2
# E. coli NK5819 (gyrA−) = assay: Disc diffusion, zone of inhibition; details: 250 μg/disc, Luria agar
# Experimental: as §1, §2
# E. coli mutant CA8001 = assay: Disc diffusion, zone of inhibition; details: 250 μg/disc, Luria agar
# Experimental: as §1
# (§3) In order to develop an arteether resistant mutants from an arteether sensitive strains a reverse strategy was applied. Quinoline/fluoroquinolone (Q/FQs) resistant strains were developed spontaneously i.e. screening overnight log phase culture of the Quinolone/fluoroquinolone sensitive i.e. arteether resistant strain (E coli CA 8000) on the poison agar plate of the Q/FQs. The Q/FQ resistant mutants which appeared on the poison agar plates were first purified through single colony purification and then checked for their arteether sensitivity. These arteether sensitive mutants on the contrary when checked for their Q/Fqs resistance they show different level of Q/FQs resistance.
# as §2
# E. coli mutant CA8002 = assay: Disc diffusion, zone of inhibition; details: 250 μg/disc, Luria agar
# Experimental: as §1, §3, §2
# E. coli mutant CA8003 = assay: Disc diffusion, zone of inhibition; details: 250 μg/disc, Luria agar
# Experimental: as §1, §3, §2
# E. coli mutant CA8006 = assay: Disc diffusion, zone of inhibition; details: 250 μg/disc, Luria agar
# Experimental: as §1, §3, §2
# E. coli mutant CA8007 = assay: Disc diffusion, zone of inhibition; details: 250 μg/disc, Luria agar
# Experimental: as §1, §3, §2
# E. coli mutant CA8009 = assay: Disc diffusion, zone of inhibition; details: 250 μg/disc, Luria agar
# Experimental: as §1, §3, §2
# E. coli mutant CA8010 = assay: Disc diffusion, zone of inhibition; details: 250 μg/disc, Luria agar
# Experimental: as §1, §3, §2
# E. coli mutant CA8012 = assay: Disc diffusion, zone of inhibition; details: 250 μg/disc, Luria agar
# Experimental: as §1, §3, §2
# [1] = test system: gyr mutant strains of E.coli; assay: Arteether sensitivity of gyr mutants; details: gyr mutants DH5a, NK5819, MTCC 482, CA8000 gyrA mutants
# Experimental: as §1, with “This enzyme transiently breaks the DNA strands and introduces negative superhelical turns in an ATP-dependent process. The E.coli DNA gyrase enzyme is a tetramer with two subunits A and B. These two subunits are nalidixic acid and coumermycin sensitive respectively (U.S. Pat. No. 6,127,405 and a co-pending patent).” left out
compound,measurement,setting,value
CCO[C@H]1O[C@@H]2O[C@@]3(C)CC[C@H]4[C@H](C)CC[C@@H]([C@H]1C)[C@@]24OO3 [beta-arteether],Net ZOI in mm,E. coli DH5 α (gyrA−),5 mm
same,Net ZOI in mm,E. coli ET8000 (gyrA−),5 mm
same,Net ZOI in mm,E. coli NK5819 (gyrA−),7 mm
same,Net ZOI in mm,E. coli mutant CA8001,10 mm
same,Net ZOI in mm,E. coli mutant CA8002,5 mm
same,Net ZOI in mm,E. coli mutant CA8003,9 mm
same,Net ZOI in mm,E. coli mutant CA8006,11 mm
same,Net ZOI in mm,E. coli mutant CA8007,8 mm
same,Net ZOI in mm,E. coli mutant CA8009,14 mm
same,Net ZOI in mm,E. coli mutant CA8010,10 mm
same,Net ZOI in mm,E. coli mutant CA8012,8 mm
same,Sensitivity,[1],none of the above described gyr mutants were sensitive
